Source: patent US20260206761A1, “HETEROARYL-TRIAZOLE COMPOUNDS AS PESTICIDES” (Bayer Aktiengesellschaft, priority 2019, published 2026)

How the values were obtained:
Assay type in all cases: in vivo
[1] = tested on: adult engorged female ticks (Rhipicephalus microplus); experiment: Rhipicephalus (Boophilus) microplus injection test; conditions: 168 h, egg deposition after 7 days, read-out: activity (efficacy: infertile eggs); for pest or weed control at 0.02 mg: application rate 20 μg/animal; for pest or weed control at 4 pg: application rate 4 pg/animal
Method: Rhipicephalus (Boophilus) microplus—Injection Test
Solvent: dimethyl sulfoxide
To produce a suitable preparation of active compound, 10 mg of active compound are dissolved in 0.5 mL solvent, and the concentrate is diluted with solvent to the desired concentration.
Five adult engorged female ticks (Rhipicephalus microplus) are injected with 1 μL compound solution into the abdomen. The ticks are transferred into replica plates and incubated in a climate chamber.
After 7 days egg deposition of fertile eggs is monitored. Eggs where fertility is not visible are stored in a climate chamber till hatching after about 42 days. An efficacy of 100% means all eggs are infertile; 0% means all eggs are fertile.

[2] = tested on: larvae of the banded cucumber beetle (Diabrotica balteata); experiment: Diabrotica balteata spray test; conditions: 168 h, after 7 days, read-out: activity (efficacy: seedlings grown); for pest or weed control at 500 g/ha: application rate 500 g/ha (=160 pg/well); for pest or weed control at 100 g/ha: application rate 100 g/ha (=32 pg/well)
Method: Diabrotica balteata—spray test
Solvent: 78.0 parts by weight of acetone • • 1.5 parts by weight of dimethylformamide
(§1) Emulsifier: alkylarylpolyglycol ether
(§2) To produce a suitable preparation of active compound, 1 part by weight of active compound is mixed with the stated amount of solvent, and the concentrate is diluted with water, containing an emulsifier concentration of 1000 ppm, to the desired concentration. Further test concentrations are prepared by dilution with emulsifier containing water.
Soaked wheat seeds (Triticum aestivum) are placed in a multiple well plate filled with agar and some water and are incubated for 1 day to germinate (5 seeds per well). The germinated wheat seeds are sprayed with a test solution containing the desired concentration of the active ingredient. Afterwards each unit is infected with 10-20 larvae of the banded cucumber beetle (Diabrotica balteata).
After 7 days efficacy in % is determined. 100% means all the seedlings have grown up like in the untreated, uninfected control; 0% means none of the seedlings have grown.

[3] = tested on: Rhipicephalus microplus larvae (strain Parkhurst, resistant against synthetic pyrethroids); experiment: Rhipicephalus (Boophilus) microplus in-vitro contact test, larval cattle tick; conditions: after 48 hours, read-out: activity (efficacy: larvae dead or moribund); for pest or weed control at 100 g/ha: application rate 1 pg/cm^2 (=100 g/ha); for pest or weed control at 500 g/ha: application rate 5 pg/cm^2 (=500 g/ha)
Method: Rhipicephalus (Boophilus) microplus—In-Vitro Contact Tests Larval Cattle Tick (Strain Parkhurst. Resistant Against Synthetic Pyrethroids)
(§3) 9 mg compound is solved in 1 mL acetone and diluted with acetone to the desired concentration. 250 μL of the test solution is filled in 25 mL glass test tubes and homogeneously distributed on the inner walls by rotation and tilting on a shaking device (2 h at 30 rpm). With a compound concentration of 900 ppm, an inner surface of 44.7 cm^2 and a homogeneous distribution, a dose of 5 μg/cm^2 is achieved.
After the solvent has evaporated, each test tube is filled with 20-50 cattle tick larvae (Rhipicephalus microplus), closed with a perforated lid and incubated in a horizontal position at 85% relative humidity and 27° C. in an incubator. After 48 hours efficacy is determined. The larvae are patted on the ground of the tubes and negative geotactic behaviour is recorded.
An efficacy of 100% means all larvae are dead or moribund; 0% means no larvae are dead or moribund.

[4] = tested on: fall armyworm larvae (Spodoptera frugiperda); experiment: Spodoptera frugiperda spray test; conditions: 168 h, read-out: activity (mortality)
Method: Spodoptera frugiperda—Spray Test
Solvent: 78.0 parts by weight acetone • 1.5 parts by weight dimethylformamide
as §1
as §2, with “solvents” for “solvent,”, “and” for “and the concentrate”
Maize (Zea mays) leaf sections are sprayed with a preparation of the active ingredient of the desired concentration. Once dry, the leaf sections are infested with fall armyworm larvae (Spodoptera frugiperda).
After 7 days mortality in % is determined. 100% means all caterpillars have been killed and 0% means none of the caterpillars have been killed.

[5] = tested on: adult brown dog ticks (Rhipicephalus sanguineus); experiment: Rhipicephalus sanguineus in-vitro contact test, adult brown dog ticks; conditions: after 48 hours, read-out: activity (efficacy: ticks dead or moribund)
Method: Rhipicephalus sanguineus—In-Vitro Contact Tests with Adult Brown Dog Ticks
as §3
After the solvent has evaporated, each test tube is filled with 5-10 adult brown dog ticks (Rhipicephalus sanguineus), closed with a perforated lid and incubated in a lying position at room temperature and relative humidity. After 48 hours efficacy is determined. The ticks are patted on the ground of the tubes and are incubated on a heating plate at 45-50° C. for at most 5 minutes. Immotile or uncoordinated moving ticks, which are not able to escape the heat by climbing upwards, are marked as dead or moribund.
An efficacy of 100% means all ticks are dead or moribund; 0% means no ticks are dead or moribund.

[6] = tested on: green peach aphid (Myzus persicae); experiment: Myzus persicae oral test; conditions: 120 h, application rate 4 ppm, after 5 days
Method: Solvent: 100 parts by weight acetone
To produce a suitable preparation of active compound, 1 part by weight of active compound is mixed with the stated amount of solvent, and the concentrate is diluted with water to the desired concentration.
50 μL compound solution is filled in microtiter plates and 150 μL IPL41 insect medium (33%+15% sugar) is added to obtain a total volume of 200 μL per well. Afterwards the plates are sealed with parafilm through which a mixed population of the green peach aphid (Myzus persicae) can suck on the compound preparation.
After 5 days mortality in % is determined. 100% means all aphids have been killed and 0% means none of the aphids have been killed.

Compound	pest or weed control at 0.02 mg [1]	pest or weed control at 100 g/ha [3]	pest or weed control at 500 g/ha [3]	mortality at 100 g/ha [4]	pest or weed control at 4 pg [1]	pest or weed control at 100 g/ha [2]	mortality at 4 ppm [6]	other results
CCOc1nc([C@H](C)NC(=O)c2csc(Cl)c2)n(-c2ccc(C#N)cn2)n1 [I-10]	80%							pest or weed control at 500 g/ha [2]: 100%
CC(C)Oc1nc([C@H](C)NC(=O)c2cc(Cl)cc(S(C)(=O)=O)c2)n(-c2ccc(C#N)cn2)n1 [I-11]	100%	90%	80%	100%	100%			mortality at 500 g/ha [4]: 83%; pest or weed control at 500 g/ha [2]: 80%
CC(C)Oc1nc([C@H](C)NC(=O)c2csc(Cl)c2)n(-c2ccc(C#N)cn2)n1 [I-12]	80%							
CC(C)S(=O)(=O)c1cc(Cl)cc(C(=O)N[C@@H](C)c2nc(C3CC3)nn2-c2ccc(C#N)cn2)c1 [I-14]	100%	100%	100%		100%			pest or weed control at 100 g/ha ([5]; application rate 1 pg/cm^2 (=100 g/ha)): 80%; pest or weed control at 5 µg/cm2, 500 g/ha ([5]; application rate 5 μg/cm^2 (=500 g/ha)): 80%
C[C@H](NC(=O)c1cc(OC(F)(F)F)cc(C2CC2)c1)c1nc(C2CC2)nn1-c1ccc(C#N)cn1 [I-37]		100%	100%		100%	100%		
C[C@H](NC(=O)c1cc(Cl)cc(S(=O)(=O)C(F)(F)F)c1)c1nc(C2CC2)nn1-c1ccc(C#N)cn1 [I-40]		100%	100%	100%	100%	100%		
CC(NC(=O)c1cc(C(F)(F)F)n(C)n1)c1nc(I)nn1-c1ncccn1 (centres unmarked) [I-42]		100%	100%			100%		
COc1nc([C@H](C)NC(=O)c2cc(OC(F)(F)F)cc(C3CC3)c2)n(-c2ccc(Cl)cn2)n1 [I-46]						100%		
C[C@H](NC(=O)c1cc(C2CC2)cc(S(C)(=O)=O)c1)c1nc(C2CC2)nn1-c1ccc(C#N)cn1 [I-49]		100%	100%	100%			100%	
CC(NC(=O)c1cc(Br)cc(C2(C(F)(F)F)CC2)c1)c1nc(Cl)nn1-c1ccc(C#N)cn1 (centres unmarked) [I-50]		80%	90%					
COc1nc([C@H](C)NC(=O)c2cc(Cl)cc(S(=O)(=O)C(F)F)c2)n(-c2ccc(Cl)cn2)n1 [I-53]				100%		100%	100%	
COc1nc([C@H](C)NC(=O)c2cc(Cl)cc(S(=O)(=O)C(F)(F)F)c2)n(-c2ccc(C#N)cn2)n1 [I-54]		100%	100%	100%			100%	
COc1nc([C@H](C)NC(=O)c2cc(Cl)cc(S(=O)(=O)C(F)F)c2)n(-c2ccc(C#N)cn2)n1 [I-55]		100%	100%	100%		100%	100%	
